Laboratory results reported in article PMC9841533, “Microtubule-Stabilizing 1,2,4-Triazolo[1,5-a]pyrimidines as Candidate Therapeutics for Neurodegenerative Disease: Matched Molecular Pair Analyses and Computational Studies Reveal New Structure–Activity Insights” (Journal of Medicinal Chemistry, 2022).
Like-named read-outs stand apart in the source and are kept apart here.

Experiments:
[1] = test system: acetylated α-tubulin (AcTub) levels in QBI293 cells; assay: QBI293 cell assay of MT stabilization: acetylated α-tubulin ELISA; assay type: cell-based
Procedure, shortened: (§1)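 AcTub and α-Tub were quantified by ELISA in whole-cell extracts normalized by BCA protein and expressed relative to vehicle. AcTub changes were also scaled to a 100 nM reference stabilizer control.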

[2] = test system: total α-tubulin (α-Tub) levels in QBI293 cells; assay: QBI293 cell assay: total α-tubulin ELISA; assay type: cell-based
Procedure, shortened: as §1

[3] = test system: AcTub levels in OA-treated primary mouse cortical neurons; assay: Okadaic acid (OA) assay, AcTub ELISA in primary mouse cortical neurons; assay type: cell-based; conditions: OA 15 nM, 8 h, compound 1 and 10 μM
Method: To further evaluate the activity of Class I alkyne derivatives and hybrid compounds, several compounds were also assessed for their ability to compensate for MT deficits in primary neuron cultures that were treated with the phosphatase inhibitor, okadaic acid (OA). As previously described,[11] treatment of rodent neurons with OA results in tau hyperphosphorylation and MT collapse that presumably results, at least in part, from tau disengagement from MTs. Co-treatment of neurons with Class I TPDs, such as 1, along with OA prevents this MT collapse, with a resulting normalization of MT structure and neuronal processes which can be observed upon visual inspection of the neurons or through an assessment of neuronal AcTub levels, while Class II TPDs are generally unable to provide meaningful compensation of MT deficits, especially when tested at higher (i.e., 10 μM) compound concentration.[11],[12]
Figure 4 ELISA determination of AcTub levels in homogenates from primary rat cortical neurons treated with either vehicle, or OA (15 nM) in the presence of vehicle or TPD 1, 8, 9 (A); and primary mouse cortical neurons treated with vehicle, or OA (15 nM) in the presence of vehicle or TPD 1, 24, 45, 46, 53, 54 (B). Error bars represent SEM, with ***, p < 0.001 relative to vehicle treatment in the absence of OA as determined by one-way ANOVA.
Compound-induced changes in acetylated-tubulin and α-tubulin in QBI293 cells or primary mouse or rat neurons were as previously described.[11],[12] For compound testing, QBI293 cells were plated at a density of 2 × 10^5 cells/well in 12-well plates. The plated cells were incubated overnight, after which the medium was aspirated and fresh medium containing vehicle (0.25–0.3% DMSO) or test compound was added. Test compounds were prepared as 4–20 mM stock solutions in 100% DMSO, and these were diluted in culture medium prior to addition to the QBI293 cells. After 4 h incubation, whole-cell extracts were prepared from the QBI293 cells as described[11] and the supernatant fraction from each sample was assessed for protein content by bicinchoninic acid (BCA) assay. The amount of acetyl-tubulin (AcTub) and α-tubulin (αTub) within the cell extract samples was quantified using specific enzyme-linked immunosorbent assays (ELISA), as previously described.[11] Acetyl-tubulin levels were determined in a similar manner in rat or mouse cortical neuron cultures in which embryonic dissociated cortical neurons were plated at 3 × 10^5 cells/well in poly-D-lysine-coated 12-well plates, essentially as previously described.[11] The neurons were allowed to grow for 10 days before they were treated for 8 h with 15 nM okadaic acid in the presence or absence of test compound prepared as described above, or vehicle (0.25% DMSO). Culture homogenates were prepared for the determination of AcTub levels by ELISA as previously described.[11]
VehicleVehicleVehicleVehicle25 (1 µM)
Figure S2. Assessment of AcTub levels in primary mouse cortical neurons treated with vehicle,
(§2) (1 picture or pasted object on this page, not shown here)

[4] = test system: de-tyrosinated α-tubulin (GluTub) in brain of WT mice; assay: Brain PD: Glu-tubulin in brain tissue after compound treatment; assay type: in vivo, mouse; conditions: WT CD-1 mice, 1 mg/kg i.p. once daily for two consecutive days
Method: Finally, to evaluate target engagement in the CNS, PD studies were conducted to determine compound-dependent elevations in the stable MT marker, de-tyrosinated α-tubulin (GluTub), in brain homogenates from compound-treated WT mice.
All animal protocols were approved by the University of Pennsylvania Institutional Animal Care and Use Committee (IACUC). […] Compounds were diluted from 20 or 40 mM DMSO stock solutions into 30% Kolliphor EL (Sigma-Aldrich) phosphate-buffered saline, pH 7.4. After 4 h following the second injection, mice were euthanized and cortices and hippocampi were isolated from each brain and placed in 0.2 mL of ice-cold radioimmunoprecipitation assay (RIPA) buffer (50 mM Tris, 150 mM NaCl, 5 mM EDTA, 0.5% sodium deoxycholate, 1% NP-40, 0.1% sodium dodecyl sulfate (SDS), pH 8.0) containing protease inhibitor (PI) cocktail (Sigma-Aldrich), 1 mM phenylmethylsulfonyl fluoride (PMSF) (Sigma-Aldrich), and 3 μM trichostatin A (TSA) (Sigma-Aldrich). The brain samples were homogenized with a handheld battery-operated mixer and subsequently sonicated. After centrifugation at 100,000g for 30 min at 4 °C, supernatant samples were transferred to a new tube and the pellets were resuspended in 0.15 mL of RIPA buffer and again homogenized, sonicated, and centrifuged. The supernatant from the second centrifugation was pooled with that from the first. The combined supernatant samples were assessed for protein concentration using a BCA assay (Thermo Fisher Scientific), and equal protein amounts from each brain sample underwent separation by 10% sodium dodecyl sulfate polyacrylamide gel electrophoresis (SDS-PAGE) followed by transfer onto nitrocellulose membranes essentially as previously described.[11] […] Incubation with infrared dye-conjugated secondary antibodies and subsequent imaging and quantification of the blots on the Odyssey imaging system were as described.[11]

[5] = Resazurin cell viability assay, QBI293; assay type: cell-based; conditions: human, QBI293 cells, three biological replicates, read-out: QBI293 CC50 ± SD
Method: (§3) Cell Culture. QBI293 and HeLa cells were cultured in DMEM supplemented with 10% heat-
(§4) inactivated FBS and 1% penicillin-streptomycin. Cells were grown in T175 cell culture flasks maintained
(§5) at 37 ℃ in 5% CO2 and sub-c ultured when at 60-8 0% cell confluence.
(§6) Resazurin Cell Viability Assay. Cytotoxicity in QBI293 and HeLa cells was measured using the
(§7) resazurin cell viability assay.1 Test compounds were serially diluted in DMSO and added to 96-well
(§8) polystyrene assay plates to give final assay concentrations ranging from 100 nM to 4000 nM (1 µL; 1%
(§9) total DMSO). Fresh medium was added to the assay plate (49 µL/well). QBI293 or HeLa cells were
(§10) cells/well. Assay plates were incubated at 37 °C and 5% CO2 for 48 h, followed by addition of 20 µL 0.5
(§11) mM resazurin (Alfa Aesar, Cat. B21187) in PBS to each well. Assay plates were incubated in the dark for
as §2
(§12) 4 h at 37 °C. Fluorescence was measured at 531 nm and 595 nm excitation and emission wavelengths,
(§13) respectively, using a 2104 EnVision® multilabel plate reader. The viability of each well was normalized to
(§14) positive and negative controls in each assay plate. Dose-response curves were generated and CC50 values
(§15) calculated with GraphPad Prism, version 9.3 (San Diego, CA) using a sigmoidal four parameter logistic
(§16) curve. The means ± standard deviations from three biological replicates are shown.
(§17) (1) O'Brien, J.; Wilson, I.; Orton, T.; Pognan, F. Investigation of the Alamar Blue (resazurin) fluorescent
(§18) dye for the assessment of mammalian cell cytotoxicity. Eur. J. Biochem. 2000, 267 (17), 5421-5426.

[6] = Resazurin cell viability assay, HeLa; assay type: cell-based; conditions: human, HeLa cells, three biological replicates, read-out: HeLa CC50 ± SD
Method: as §3, §4, §5, §6, §7, §8, §9, §10, §11, §2, §12, §13, §14, §15, §16, §17, §18

[7] = test system: acetylated α-tubulin (AcTub) levels in QBI293 cells; parameters: method as in PMID 26980057, PMID 33411523; conditions: activity reported in previous studies; cited from earlier work
[8] = 4 h, 1 uM compound, read-out: AcTub (1uM)
[9] = 4 h, 10 uM compound, read-out: AcTub (10 uM)
[10] = 4 h incubation, 1 μM, read-out: AcTub 1 μM, fold-change compared to vehicle (DMSO)-treated cells
[11] = 4 h incubation, 10 μM, read-out: AcTub 10 μM, fold-change compared to vehicle (DMSO)-treated cells
[12] = 4 h, 1 uM compound, read-out: AlfaTub (1uM)
[13] = 4 h, 10 uM compound, read-out: AlfaTub (10 uM)
[14] = 4 h incubation, 1 μM, read-out: α-Tub 1 μM, fold-change compared to vehicle (DMSO)-treated cells
[15] = 4 h incubation, 10 μM, read-out: α-Tub 10 μM, fold-change compared to vehicle (DMSO)-treated cells

Row | Structure (SMILES) | AcTub (1 uM - normalized) ([1]; 1 uM compound) | AcTub (10 uM - normalized) ([1]; 10 uM compound) | fold induction at 1 µM [1, 8] | fold induction at 10 µM [1, 9] | AcTub 1 μM, fold-change compared to positive control compound 5 (100 nM) (in parentheses) ([1]; 4 h incubation, 1 μM) [fold-change] | fold induction at 1 µM [1, 10] | AcTub 10 μM, fold-change compared to positive control compound 5 (100 nM) (in parentheses) ([1]; 4 h incubation, 10 μM) [fold-change] | fold induction at 10 µM [1, 11] | fold induction at 1 µM [2, 12] | fold induction at 10 µM [2, 13] | fold induction at 1 µM [2, 14] | fold induction at 10 µM [2, 15] | prevention/correction of OA-induced MT collapse (AcTub levels) [3] | brain GluTub (GluTub-to-total α-Tub ratio) relative to vehicle-treated mice [4] | CC50 at 48 h [5] [nM] | CC50 at 48 h [6] [nM] | Class (cellular phenotype) [7]
1 | C[C@@H](Nc1c(-c2c(F)cc(C#CCCCO)cc2F)c(Cl)nc2ncnn12)C(C)(C)C [Compound 54, (R)-5-(4-(5-Chloro-7-((3,3-dimethylbutan-2-yl)amino)-[1,2,4]triazolo[1,5-a]pyrimidin-6-yl)-3,5-difluorophenyl)pent-4-yn-1-ol] | 0.74 | 0.87 | 4.78 | 5.59 | 0.74 | 4.78 ± 1 | 0.87 | 5.59 ± 0.26 | 1.19 | 1.14 | 1.19 ± 0.11 | 1.14 ± 0.077 | can prevent the OA-induced MT collapse | – | – | – | –
2 | C[C@@H](Nc1c(-c2c(F)cc(C#N)cc2F)c(Cl)nc2ncnn12)C(C)(C)C [Compound 68] | – | – | – | – | – | – | – | – | – | – | – | – | – | significant elevations in brain GluTub | 30.7 ± 5.2 | 41.7 ± 3 | I
3 | CC(C)[C@@H](C)Nc1c(-c2c(F)cc(C#CCCCO)cc2F)c(Cl)nc2ncnn12 [Compound 46, (R)-5-(4-(5-Chloro-7-((3-methylbutan-2-yl)amino)-[1,2,4]triazolo[1,5-a]pyrimidin-6-yl)-3,5-difluorophenyl)pent-4-yn-1-ol] | 0.40 | 0.68 | 2.59 | 4.43 | 0.40 | 2.59 ± 0.16 | 0.68 | 4.43 ± 0.56 | 1 | 1.37 | 1 ± 0.08 | 1.37 ± 0.05 | can prevent the OA-induced MT collapse | – | – | – | –
4 | C[C@@H](Nc1c(-c2c(F)cc(OCCCO)cc2F)c(Cl)nc2ncnn12)C(C)(C)C [Compound 25, (R)-3-(4-(5-Chloro-7-((3,3-dimethylbutan-2-yl)amino)-[1,2,4]triazolo[1,5-a]pyrimidin-6-yl)-3,5-difluorophenoxy)propan-1-ol] | 1.01 | 0.98 | 9.17 | 8.92 | 1.01 | 9.17 ± 0.13 | 0.98 | 8.92 ± 0.36 | 0.96 | 1.06 | 0.96 ± 0.03 | 1.06 ± 0.03 | lesser recovery of OA-induced MT collapse | – | – | – | –
